Measurements: paper PMC5408263, “Four Aromatic Sulfates with an Inhibitory Effect against HCV NS3 Helicase from the Crinoid Alloeocomatella polycladia” (Marine Drugs, 2017)
Structures can show the parent of a compound that is named as a salt.

Key:
[1] = biological target: T1, HCV NS3 helicase (Hepatitis C virus genotype 1a, UniProt P27958); assay: fluorescence helicase assay based on FRET; format: biochemical; conditions: dsRNA substrate labeled with Alexa Fluor 700 and Black Hole Quencher 3; 240 nM NS3 helicase; 30 min at 37 °C; triplicate; read-out: IC50 against NS3 helicase
T1 construct: HCV NS3 protein with helicase activity was expressed and purified as previously described; made in house
Description: For enzymatic inhibition, we used the fluorescence helicase assay based on fluorescence resonance energy transfer (FRET) to examine NS3 helicase inhibition by Compounds 1–4. […] The measured values in triplicate for each concentration of Compounds 1–4 were averaged and divided by the mean value from the negative control sample that contains DMSO instead of Compounds 1–4 to show the NS3 helicase activity as a percentage.
The fluorescence helicase assay based on FRET was conducted as we previously described, except that we used a DNA capture strand rather than an RNA capture strand for which the sequence was complementary to that of the quencher strand. HCV NS3 protein with helicase activity was expressed and purified as previously described. In the assay, when NS3 helicase unwinds the dsRNA substrate, the DNA capture strand binds to the unwound single-stranded RNA (ssRNA) substrate labeled with Black Hole Quencher 3 and prevents the ssRNA substrate from reannealing to the complementary ssRNA substrate labeled with Alexa Fluor 700. […] Thus, the NS3 helicase activity can be monitored by the real-time measurement of the fluorescence intensity of Alexa Fluor 700 through 30 min incubation at 37 °C by using a SpectraMax Gemini XS microplate reader (Molecular Devices, Sunnyvale, CA, USA). The reaction mixture contained 25 mM MOPS-NaOH (pH 6.5), 3 mM MgCl2, 2 mM dithiothreitol, 4 U RNasin (Promega, Madison, WI, USA), 50 nM dsRNA substrate, 400 nM DNA capture strand, 5 mM ATP, a serial dilution of Compounds 1–4 dissolved in DMSO, and 240 nM NS3 helicase in a total reaction volume of 20 μL. The NS3 helicase activity was calculated as the initial reaction velocity relative to that of the control (in the absence of Compounds 1–4 but in the presence of DMSO). The IC50 value was calculated using KaleidaGraph (Synergy Software, Reading, PA, USA) by fitting plots of relative helicase activity (%) vs. [I] using Equation (1):(1) % Activity = 100/1 + ([I]/IC50)^h where h is the Hill coefficient, and [I] is the inhibitor concentration.

[2] = tested on: HCV subgenomic replicon cell line Huh7/Rep-Feo (genotype 1b, N strain); assay: HCV replicon assay (luciferase); format: cell-based; conditions: Hepatitis C virus, Huh-7, 72 h post-treatment, luciferase activity, read-out: EC50 (50% effective concentration), suppression of HCV replication
Description: (§1) Further, we investigated the effect of Compounds 2 and 3 on both viral replication and cell growth in the HCV subgenomic replicon cell line Huh7/Rep-Feo (genotype 1b, N strain). […] This was likely due to its low membrane permeability caused by the negatively charged sulfate group within the molecule in aqueous solution.
The Huh7/Rep-Feo cell line harboring the subgenomic replicon RNA of the N strain (genotype 1b) was seeded at 2 × 10^4 cells per well in a 48-well plate and incubated at 37 °C for 24 h. A serial dilution of Compounds 2 and 3 was added to each well of the plate. The treated cells were harvested 72 h post-treatment and lysed in cell culture lysis reagent (Promega, Madison, WI, USA). Luciferase activity in the harvested cells was estimated with a luciferase assay system (Promega). The resulting luminescence was detected by a Luminescencer-JNR AB-2100 (ATTO, Tokyo, Japan). The anti-HCV activity was calculated as the intensity of the luminescence relative to that of the control (in the absence of Compounds 2 and 3 but in the presence of DMSO).

[3] = Cytotoxicity assay (MTS); format: cell-based; conditions: human, Huh7/Rep-Feo cells, 72 h post-treatment, read-out: CC50 (50% cytotoxicity concentration)
Description: as §1
Huh7/Rep-Feo cells were seeded at a density of 1 × 10^4 cells per well in a 96-well plate and then incubated at 37 °C for 24 h. Compounds 2 and 3 were added to the culture medium to yield various concentrations and were then harvested 72 h post-treatment. Cell viability was determined by a dimethyl thiazolcarboxymethoxyphenyl sulfophenyltetrazolium (MTS) assay using a CellTiter 96 aqueous one-solution cell proliferation assay kit (Promega), according to the manufacturer’s protocol.

[4] = tested on: hepatitis C virus (HCV) NS3 helicase; conditions: authentic molecule; read-out: IC50 against NS3 helicase; cited from earlier work

T1 sequence (P27958 1027-1657): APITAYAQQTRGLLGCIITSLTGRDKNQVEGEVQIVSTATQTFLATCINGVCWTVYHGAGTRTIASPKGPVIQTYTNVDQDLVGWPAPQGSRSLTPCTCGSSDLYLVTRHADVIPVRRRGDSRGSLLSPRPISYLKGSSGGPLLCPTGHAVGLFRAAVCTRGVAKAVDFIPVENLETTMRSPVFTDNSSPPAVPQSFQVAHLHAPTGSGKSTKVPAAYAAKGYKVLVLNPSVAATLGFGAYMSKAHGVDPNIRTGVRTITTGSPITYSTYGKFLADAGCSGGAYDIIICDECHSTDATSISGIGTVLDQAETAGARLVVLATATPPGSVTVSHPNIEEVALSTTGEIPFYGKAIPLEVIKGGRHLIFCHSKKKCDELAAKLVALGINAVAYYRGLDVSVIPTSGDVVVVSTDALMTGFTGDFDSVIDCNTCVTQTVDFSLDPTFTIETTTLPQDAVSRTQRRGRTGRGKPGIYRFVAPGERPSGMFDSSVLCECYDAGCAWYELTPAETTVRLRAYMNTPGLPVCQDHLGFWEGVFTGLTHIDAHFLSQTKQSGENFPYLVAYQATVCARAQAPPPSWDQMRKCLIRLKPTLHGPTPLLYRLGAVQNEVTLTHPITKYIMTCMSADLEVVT

| SMILES | IC50 [1] [µM] | EC50 [2] [µM] | CC50 at 72 h [3] [µM] | IC50 [4] [µM] |
| --- | --- | --- | --- | --- |
| Cc1cc(O)c2c(=O)c3c(O)cc(OS(=O)(=O)O)cc3cc-2o1 [Compound 1] | 71 | – | – | – |
| CCCc1cc(O)c2c(=O)c3c(O)cc(OS(=O)(=O)O)cc3cc-2o1 [Compound 2] | 95 | 57 | 52 | – |
| CC(C)CCC[C@@H](C)[C@H]1CC[C@H]2[C@@H]3CC=C4C[C@@H](OS(=O)(=O)O)CC[C@]4(C)[C@H]3CC[C@]12C [cholesterol sulfate] | – | – | – | 1.7 ± 0.2 |
| CCCc1cc(O)c2c(=O)c3c(O)c(-c4c(OS(=O)(=O)O)cc(O)c5c(=O)c6c(O)cc(C)oc-6cc45)c(OS(=O)(=O)O)cc3cc-2o1 [Compound 4] | 5 | – | – | – |
| Cc1cc(O)c2c(=O)c3c(O)c(-c4c(OS(=O)(=O)O)cc(O)c5c(=O)c6c(O)cc(C)oc-6cc45)c(OS(=O)(=O)O)cc3cc-2o1 [Compound 3] | 7 | 67 | 70 | – |
